Like-named read-outs stand apart in the source and are kept apart here. Marks after values point to notes of the source that are not given here.
Legend:
[1] = tested on: C57B/L6 mice exposed to bleomycin; experiment: Example 1: prophylactic treatment of mice exposed to bleomycin (IPF model); assay type: in vivo, mouse; conditions: OX1, OX3, Nintedanib 30 mg/kg QD, Pirfenidone 100 mg/kg BID; for body weight course over 21 days: bleomycin mice, oral gavage day -1 to 20; for neutrophil migration into BALF / number of lymphocytes in BALF / total cell (leukocyte) count in BALF / increased collagen (fibrosis) score, trichrome / mean Ashcroft score (lung histology) / mean score for mixed peribronchiolar/perivascular inflammation: day 21; for neutrophil migration into BALF / number of lymphocytes in BALF / total cell (leukocyte) count in BALF: oral; for increased collagen (fibrosis) score, trichrome / mean Ashcroft score (lung histology) / mean score for mixed peribronchiolar/perivascular inflammation: compared to vehicle (Group 2)
Source text: 4-(5-phenyl-3-{3-[3-(4-trifluoromethyl-phenyl)-ureido]-propyl}-pyrazol-1-yl)-benzenesulfonamide (PTUPB) [termed OX1] was compared to Pirfenidone, Nintedanib, and GSK225629415 [termed OX3] for treatment of IPF using an established model for IPF treating, which is prophylactic treatment of mice exposed to the chemotherapeutic agent bleomycin. […] Pirfenidone and Nintedanib are standard of care for the treatment of idiopathic pulmonary fibrosis and served as reference compounds in the experiment.
C57B/L6 mice were used in the experiments. When used, Bleomycin was administered intra-oropharyngeally, 1.5 U/kg, QD per established protocol. The test articles were dosed via oral gavage in 200 μL/day vehicle. The doses and formulations of test articles were selected based on the literature describing the lowest doses capable of eliciting pharmacological action.
Animals were dosed with the test articles (or vehicle) starting at day −1 to day 20. On day 1, daily doses of Bleomycin commenced in all but group 1 (negative control) which received the vehicle. On day 21, all animals were weighed and sacrificed. After lungs and bronco-alveolar lavage fluid (BALF) were harvested, they were prepared according to standard procedures for further analysis and histology. All animals were assessed twice a week for body weight and overall appearance. Efficacy endpoints measured in this study included lung weight, total leukocytes, and histology as determined by Mason's Trichrome stain and scored using a modified Ashcroft score.
The following parameters were measured in bronchoalveolar fluid (BALF): 1) soluble collagen and 2) differential leukocyte counts for different leukocyte populations.
After weighing and removal of BALF from the lungs, they were inflated and fixed using 10% neutral buffered formalin for histopathology analysis. Fifty-four formalin-fixed lung samples from mice were submitted to HistoTox Labs and were processed routinely. Two slides from each block were sectioned and stained with hematoxylin and eosin (H&E) or Masson's trichrome. Glass slides were evaluated with light microscopy by a board-certified veterinary pathologist. Lung sections were scored according to the modified Ashcroft scale.

[2] = tested on: Human primary lung fibroblasts from IPF donors; experiment: Fibroblast-to-Myofibroblast Transition (FMT) assay; assay type: cell-based; conditions: for IC50: Homo sapiens, Primary lung fibroblast, 1.25 ng/ml TGF-b1
Description: OX1 was evaluated in a primary cell-based Fibroblast-to-Myofibroblast Transition (FMT) assay; an in vitro assay relevant to idiopathic pulmonary fibrosis (TPF). Human primary lung fibroblasts from three (3) IPF donors (IPF06, IPF07, and IPF08) were triggered using 1.25 ng/ml TGF-b1 to induce FMT, one hour after application of compounds. OX1 and Nintedanib (approved drug for TPF) were applied in […] in semi-log dilutions with the top concentration at […] to construct eight (8)-point concentration response curve (CRC) in biological duplicates (ie. on two (2) different cell plates at on (1) occasion). SB525334 was used at […] in 0.1% DMSO as a positive validation control. The readouts at 72 hours were high content analysis (HCA) for aSMA expression and DAPI staining for nuclear count as measurement of potential cytotoxic effects.

[3] = tested on: C57BL/6 mice, bleomycin-induced fibrotic lung injury; experiment: Example 2: therapeutic treatment in bleomycin-induced idiopathic pulmonary fibrosis mouse model; assay type: in vivo; conditions: OX1 60 mg/kg, Pirfenidone 100 mg/kg
Source text: The purpose of this study is to induce fibrotic lung injury in mice via a single administration of a glycopeptide antibiotic, bleomycin, in order to evaluate the efficacy of dual sEH and COX-2 inhibitor OX-1 in treating and reducing the symptoms associated with idiopathic pulmonary fibrosis. Pirfenidone, standard of care for the treatment of idiopathic pulmonary fibrosis, was used as a reference compound.
Male C57BL/6 mice from Charles River Laboratories aging of 7-8 weeks and weighing around 18-22 g at the time of their enrollment were used in the study.
Doses of OX1 at 60 mg/kg, Pirfenidone at 100 mg/kg, and the disease inducer Bleomycin at 1.5 mg/kg were used. A dosing rate of 10 mL/kg (approximately 0.2 mL/mouse according to their body weight) of OX1 was administered orally once daily to the mice. The mice received OX1 at 60 mg/kg once daily. A dosing rate of 10 mL/kg (approximately 0.2 mL/mouse according to their body weight) of Pirfenidone solution was administered once daily to the mice of the groups receiving Pirfenidone orally at the dose of 100 mg/kg once daily. A single intratracheal instillation of approximately 50 μL (1.5 mg/kg with a dosing rate of 2.5 mL/kg in sterile 0.9% saline) of bleomycin solution was administered to all mice except the sham group on day 0. Animals in the Sham group received one intratracheal instillation of approximately 50 μL of 0.9% saline solution on Day 0 and returned to their respective cages.
Treatment with the vehicle or test articles were initiated and administered starting on day 7 to day 21 as scheduled and described in Table 1 above. All test articles, reference compound and vehicle were administered to animals orally once daily. Food and water were given ad libitum. Daily observations of the behavioral and general health status of the animals were done. Daily body weight was also measured.
Prior to physiological assessment, all mice were introduced to the plethysmograph chamber environment. After the acclimatization period, the functional respiratory parameters were assessed by the whole-body plethysmograph on Day 0 (before bleomycin instillation), 7, 14 and 21 post-bleomycin instillation. Each measurement was performed with a mouse placed alone in an unrestrained whole-body plethysmography chamber (Buxco Electronics Inc.) to measure respiratory functions. The functional respiratory parameters analyzed included; the respiratory rate, the PenH ([…]) and the inspiratory/expiratory time measurements.
On the surgery day (Day 21), the mice were anesthetized, instrumented and arterial blood oxygen saturation (SpO2) was recorded. Blood oxygen saturation was read off of the pulse oximeter (STARR Life Sciences MouseOx Plus system, Oakmont, Pa.) with the probe attached to the right thigh of the animal. The saturation values were measured in percentage (%). At the moment of the sacrifice, the mouse thoracic cavity was open to expose the lungs and all mice were euthanatized by exsanguination. The trachea was then connected to the cannula of a perfusion system. The left lung was clamped while 1.5 mL of cold PBS solution (3×500 μL) was injected by the trachea to perform a bronchoalveolar lavage fluid (BALF) on the right lobe of the lungs and was collected on ice for further analysis. The total cells count with cells differential, the cytokine levels including TNF-α, TGF-β, IL-4, IL-5 and IL-17a, the total protein content as well as the soluble collagen were assessed in the BALF samples. Once collected, 300 μL of the BALF was transferred in an EDTA tube, kept at 2-4° C. and shipped to Biovet Inc. for the total cells count with cells differential analysis. The remaining BALF sample was centrifuged at 1200 rpm for 10 minutes at 4° C. to remove cells. The supernatant was aliquots and frozen at−80° C. until analysis was performed. […]

[4] = lung histopathology day 21, mean
[5] = mean, BLM mice, oral once daily day 7 to 21

COC(=O)c1ccc2c(c1)NC(=O)/C2=C(\Nc1ccc(N(C)C(=O)CN2CCN(C)CC2)cc1)c1ccccc1 [Nintedanib]
body weight course over 21 days [1]: sustained weight loss | neutrophil migration into BALF [1]: effective | number of lymphocytes in BALF [1]: trend increasingly lower | total cell (leukocyte) count in BALF [1]: largest reduction | increased collagen (fibrosis) score, trichrome [1]: the highest | mean Ashcroft score (lung histology) [1]: the highest | mean score for mixed peribronchiolar/perivascular inflammation [1]: similar | Loss of Nuclei ([2]; DAPI staining, nuclear count as measure of potential cytotoxic effects, 72 hours): Yes | IC50 ([2]; donor IPF06, readout at 72 hours, read-out: αSMA inhibition IC50 (μM), Patient Identifier IPF06): 0.6 µM | IC50 ([2]; donor IPF07, readout at 72 hours, read-out: αSMA inhibition IC50 (μM), Patient Identifier IPF07): 0.6 µM | IC50 ([2]; donor IPF08, readout at 72 hours, read-out: αSMA inhibition IC50 (μM), Patient Identifier IPF08): 0.4 µM | IC50 ([2]; mean of three IPF donors, 72 hours, read-out: αSMA inhibition IC50 (μM), Mean): 0.5 µM

Cc1ccc(=O)n(-c2ccccc2)c1 [Pirfenidone]
body weight course over 21 days [1]: sustained weight loss | neutrophil migration into BALF [1]: did not exhibit any effects | number of lymphocytes in BALF [1]: trend increasingly lower | total cell (leukocyte) count in BALF [1]: did not demonstrate the same level of reduction | increased collagen (fibrosis) score, trichrome [1]: slightly lower | mean Ashcroft score (lung histology) [1]: slightly lower | mean score for mixed peribronchiolar/perivascular inflammation [1]: similar | Eosinophils (cells) ([3]; BALF day 21, mean): 874 cells | Lymphocytes (cells) ([3]; BALF day 21, mean): 174517 cells | Macrophages (cells) ([3]; BALF day 21, mean): 204110 cells | Neutrophils (cells) ([3]; BALF day 21, mean): 6999 cells | Soluble collagen ([3]; BALF day 21, mean): 197.82 µg | Total BALF cytokines (pg) IL-4 ([3]; BALF day 21, mean): 0.00 pg | Total BALF cytokines (pg) IL-5 ([3]; BALF day 21, mean): 2.17 pg | Total BALF cytokines (pg) IL-6 ([3]; BALF day 21, mean): 11.98 pg | Total BALF cytokines (pg) IL-17 ([3]; BALF day 21, mean): 0.00 pg | Total BALF cytokines (pg) IP-10 ([3]; BALF day 21, mean): 15.24 pg | Total BALF cytokines (pg) LIF ([3]; BALF day 21, mean): 24.67 pg | Total BALF cytokines (pg) MIG ([3]; BALF day 21, mean): 8.58 pg | Total BALF cytokines (pg) TNFa ([3]; BALF day 21, mean): 0.00 pg | Total TGFβ ([3]; BALF day 21, mean): 472.64 pg | Total cell counts (cells) ([3]; BALF day 21, mean): 386500 cells | Percent Survival (%) ([3]; BLM mice, oral once daily day 7 to 21): 91.70% | Ashcroft score [3, 4]: 3.5 †† | Collagen content (%) [3, 4]: 5.91% | Pulmonary foci (%) [3, 4]: 7.46% | Body weight changes from day 0 (%) [3, 5]: 2.47% | Body weight changes from day 7 (%) [3, 5]: 6.49%
